One block for each molecule: values may come before it.
Assays:
[1] = target: T1, vanadium chloroperoxidase (CiVCPO) (Curvularia inaequalis, UniProt P49053); assay: fluorescence binding titration (quenching), tight-binding fit, pH […]
T1 construct: gene CPO; His-trap purified CiVCPO expressed in E. coli BL21 DE3 (67 kDa)
T1 sequence (P49053 1-609): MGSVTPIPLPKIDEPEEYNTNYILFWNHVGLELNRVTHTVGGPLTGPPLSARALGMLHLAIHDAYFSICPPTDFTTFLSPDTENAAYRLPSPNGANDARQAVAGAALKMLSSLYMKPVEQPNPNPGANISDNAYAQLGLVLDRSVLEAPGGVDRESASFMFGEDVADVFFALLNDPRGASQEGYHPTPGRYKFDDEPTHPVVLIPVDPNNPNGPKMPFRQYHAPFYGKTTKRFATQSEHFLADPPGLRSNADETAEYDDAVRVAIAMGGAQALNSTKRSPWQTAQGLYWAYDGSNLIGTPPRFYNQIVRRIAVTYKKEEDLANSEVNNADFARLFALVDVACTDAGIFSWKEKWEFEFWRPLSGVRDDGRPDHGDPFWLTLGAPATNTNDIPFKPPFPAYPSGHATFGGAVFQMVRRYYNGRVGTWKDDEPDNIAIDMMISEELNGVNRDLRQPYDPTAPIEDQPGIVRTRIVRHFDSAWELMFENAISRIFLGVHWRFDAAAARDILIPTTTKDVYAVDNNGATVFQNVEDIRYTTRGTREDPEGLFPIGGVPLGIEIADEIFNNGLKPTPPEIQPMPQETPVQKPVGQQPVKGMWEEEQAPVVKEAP

purified protein = substrate: c1ccc(-c2cc3ccccc3[nH]2)cc1; assay: purified protein; details: vanadate pocket near the protein surface: Pro47, His222, Gln220, Asp292, Gly293, Asp390, Phe393, Pro396, Phe397 (docking/MD only)

Kd [1]: 660 ± 50 nM
Molecule: Cn1c(-c2ccccc2)cc2ccccc21 [methylphenylindole]

B1: vanadium chloroperoxidase (CiVCPO) (Curvularia inaequalis) (protein)
chain: T1 sequence (P49053 1-609)
Km (purified protein): 1.52 µM
